Assay results: US12485110B2, “Use of ergothioneine for extending lifespan or improving healthspan” (NANJING NUTRABUILDING BIO-TECH CO., LTD., priority 2022, dated 2025)

System: C. elegans
Assay: Differential gene expression by mRNA sequencing (RNA-Seq)
Assay type: in vivo
Conditions: for Number of genes differentially expressed above threshold: 5 mM vs control
Procedure: More than 150 day-1 adult worms per replicate were harvested, cleaned by filtration, and frozen at −80° C. in Trizol. To extract RNA, samples were thawed, vigorously vortexed, and processed using the Direct-zol RNA Miniprep Kit (Zymo Research). All samples exceeded our threshold for RNA quantity and quality.
RNA samples were submitted to Novogene Co. Ltd and subjected to more stringent QC, being tested on a Qubit for concentration and run on an agarose gel and on the Agilent 2100 to assess RNA quality and integrity.
The total RNA is then enriched for poly-mRNA using oligo(dT) paramagnetic beads. DNA libraries were then constructed from this input mRNA using the NEB Next Ultra™ II RNA Library Prep Kit. This creates a ready-to-sequence dsDNA library that retains the strand-specific information in the original mRNA. These libraries were then further tested by the Qubit for concentration and the Agilent 2100 for library size distribution and quality. In order to properly pool the libraries and load them onto sequencing lanes to ensure the correct number of reads per sample, an even more precise quantification of the library was done via qPCR, and the samples were loaded onto the NovaSeq 6000 platform for a paired-end sequencing run of 150 bp for each end (PE150). The loading concentrations were designed to obtain at least 6.0 Gb (which is the number of billion bases of raw data, determined by the number of reads multiplied by the length of each read).
Sequencing run data quality control was performed both by Novogene and again by inventors of this application. The raw data set was analyzed for: • 1. The distribution of base quality along the length of the sequencing read; • 2. The distribution of error rate along the length of the sequencing read; • 3. The distribution of A/T/G/C bases along the length of the sequencing read; • 4. The distribution of raw data filtering results based on the following three criteria: • a. Removing reads containing adapter sequence, • b. Remove reads with N>10% (where N means “base cannot be determined”), • c. Remove reads with a low quality (Qscore<=5) for 50% or more of its total bases.
To identify potential mechanisms of action through which Ergothioneine could affect aging, global gene expression was analyzed by mRNA sequencing (RNA-Seq). Both young (adult day 3) and aged (adult day 10) worms were collected from the same population of worms tested in the lifespan assay.
Differential gene expression was performed with EdgeR using […] likelihood ratio tests based on fitting linear models. The likelihood ratios were used to determine the p-values which were subsequently corrected for using the BH false discovery rate (fdr) method. Ultimately, differentially expressed genes (DEG) were defined as genes with an fdr-corrected p-value of 0.05 or lower, as well as a change in expression of at least 2-fold in a given between-group comparison. In this study, the comparison groups in Table 5 were used:
Reading Volcano Plots (log 2 fold change, Log FC): Positive values mean that the gene is more expressed in Treatment, and negative values mean the gene is more expressed in Control. The farther the dot is from the origin point on the x-axis, the greater the expression fold-change. Genes represented in green show a larger than 2-fold change in expression but are not deemed statistically significant due to replicate variability or low read count. Genes represented by red dots show greater than 2-fold change and expression that is statistically significant. The higher on the y-axis, the greater the calculated level of significance.

[1] = 5 mM vs vehicle control, Day 10, log 2 fold change
[2] = 5 mM vs. vehicle control, Day 3, log 2 fold change

Question: For `C[N+](C)(C)[C@@H](Cc1c[nH]c(=S)[nH]1)C(=O)[O-]` [Ergo, Ergothioneine], which “Number of genes differentially expressed above threshold” value (Day 3, cpr-1, mtl-1, argk-1, fdr P 0.05 or lower and at least 2-fold) is on record?
Answer: 3

Question: And the “Number of genes differentially expressed above threshold” value (Day 10, F55G11.4)?
Answer: 1

Question: What about the “log FC, gene C30G12.2” value [1] of the same compound?
Answer: 0.55

Question: And the “log FC, gene F55G11.4” value [1]?
Answer: −1.09

Question: What about the “log FC, gene K07C11.7” value [1] of the same compound?
Answer: −0.43

Question: What about the “log FC, gene TO5E12.6” value [1] of the same compound?
Answer: 0.62

Question: And the “log FC, gene Y39B6A. 1” value [1]?
Answer: −0.38

Question: What about the “log FC, gene Y94H6A.10” value [1] of the same compound?
Answer: 0.43

Question: And the “log FC, gene clec-150” value [1]?
Answer: −0.45

Question: What about the “log FC, gene col-19” value [1] of the same compound?
Answer: −0.47

Question: What about the “log FC, gene dod-6” value [1] of the same compound?
Answer: 0.69

Question: What about the “log FC, gene dod-24” value [1] of the same compound?
Answer: −0.49

Question: What about the “log FC, gene folt-2” value [1] of the same compound?
Answer: −0.49

Question: And the “log FC, gene pmp-5” value [1]?
Answer: −0.64

Question: And the “log FC, gene pmt-2” value [1]?
Answer: −0.38

Question: And the “log FC, gene smd-1” value [1]?
Answer: 0.26

Question: What about the “log FC, gene thn-2” value [1] of the same compound?
Answer: 0.31

Question: What about the “Log FC, gene C14C6.5” value [2] of the same compound?
Answer: −0.59

Question: What about the “Log FC, gene F16B4.4” value [2] of the same compound?
Answer: 0.66

Question: And the “Log FC, gene F28B4.3” value [2]?
Answer: −0.48

Question: What about the “Log FC, gene F53A9.8” value [2] of the same compound?
Answer: −0.73

Question: And the “Log FC, gene F57F4.4” value [2]?
Answer: −0.43

Question: And the “Log FC, gene Y39B6A. 1” value [2]?
Answer: −0.95

Question: What about the “Log FC, gene argk-1” value [2] of the same compound?
Answer: 1.14

Question: And the “Log FC, gene col-95” value [2]?
Answer: −0.56

Question: And the “Log FC, gene col-124” value [2]?
Answer: 1.76

Question: And the “Log FC, gene cpr-1” value [2]?
Answer: −2.10

Question: What about the “Log FC, gene ctsa-1.2” value [2] of the same compound?
Answer: −0.48

Question: And the “Log FC, gene ctsa-2” value [2]?
Answer: 0.50

Question: And the “Log FC, gene folt-2” value [2]?
Answer: −0.54

Question: What about the “Log FC, gene hacd-1” value [2] of the same compound?
Answer: −1.06

Question: And the “Log FC, gene ilys-5” value [2]?
Answer: −0.57

Question: And the “Log FC, gene irg-5” value [2]?
Answer: 1.39

Question: What about the “Log FC, gene lys-7” value [2] of the same compound?
Answer: −0.70

Question: And the “Log FC, gene mtl-1” value [2]?
Answer: −1.63

Question: And the “Log FC, gene smd-1” value [2]?
Answer: −0.35

Question: And the “Log FC, gene vit-4” value [2]?
Answer: −0.64
